Experimental data: a compilation of properties of binary mixtures (doi:10.1016/j.electacta.2009.09.024)

Test: xn = mol fraction of the nth substance listed
Conditions: 100 kPa, x2 = 0.25

O=S(=O)([N-]S(=O)(=O)C(F)(F)F)C(F)(F)F.[Rb+] + O=S(=O)([N-]S(=O)(=O)C(F)(F)F)C(F)(F)F.[Li+]
Conditions | electrical conductivity [S/m] | viscosity [mPa·s]
442.2 K | 0.822 | –
442.5 K | – | 63.2
452.2 K | 1.05 | –
462.7 K | 1.28 | –
473.7 K | 1.52 | –
473.9 K | – | 28.1
482.9 K | 1.86 | –
492.3 K | 2.15 | –
492.6 K | – | 17.9
502.4 K | 2.48 | –
502.5 K | – | 14.3
512.8 K | – | 11.8
523.1 K | 3.2 | –
543.3 K | 4.03 | –
543.5 K | – | 7.21
551.9 K | 4.33 | –
552.5 K | – | 6.61
561.2 K | 4.79 | –
561.8 K | – | 5.8
571.1 K | 5.08 | –
